Seven compounds from ChEMBL document CHEMBL1201862, “PubChem BioAssay data set” (2004) can be followed below.

Some test systems named below: NCI-H226; 786-0; SF-268; DU-145; OVCAR-8; PC-3; MDA-MB-435; OVCAR-3; SF-539; Malme-3M; NCI-H522; HCC 2998; A498; K562; MOLT-4; SK-MEL-2; Hs-578T; HCT-15; CAKI-1; TK-10.
What all share (experiment): NCI-60 cell line screen, 48 h

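Five concentrations, 48 hours, 96-well plates. At the GI50, growth is halved.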 Active and inactive are the calls of the source. No stated cut-off is given here; in the data, active = GI50 up to about 1.1 µM and inactive = higher.

As to `CCOC(=O)c1cc2cc([N+](=O)[O-])ccc2oc1=O`, the GI50 in the assay with NCI-H226 was > 100 µM (inactive); with 786-0, > 100 µM (inactive); in the assay with SF-268, 39.3 µM (inactive); in the assay on DU-145 it was > 100 µM (inactive); with OVCAR-8, > 100 µM (inactive); in the assay on PC-3, > 100 µM (inactive). Besides, the GI50 in the assay with MDA-MB-435 is > 100 µM (inactive); in the assay on OVCAR-3, > 100 µM (inactive); with SF-539 it was > 100 µM (inactive); with Malme-3M, > 100 µM (inactive); in the assay on NCI-H522, > 100 µM (inactive); in the assay on HCC 2998, 58.6 µM (inactive). Besides, the GI50 with A498 is > 100 µM (inactive); with K562, 41.2 µM (inactive); in the assay with MOLT-4, > 100 µM (inactive); in the assay with SK-MEL-2, > 10 µM (inactive); with Hs-578T, > 100 µM (inactive); with HCT-15, above 100 µM. Further, in the assay with CAKI-1, the GI50 is > 100 µM (inactive).
As to `CC1=NN(c2ccccc2)C(=O)/C1=C1\SC(c2ccccc2)(c2ccccc2)c2ccccc21`, the GI50 in the assay on NCI-H226, in the assay on 786-0, with SF-268, with DU-145, with OVCAR-8 and in the assay on PC-3 was > 100 µM (inactive) each time. The GI50 with MDA-MB-435, with OVCAR-3, in the assay on SF-539, in the assay on Malme-3M, in the assay on NCI-H522 and in the assay with HCC 2998 was > 100 µM (inactive) in each case. The GI50 with A498, with K562, with MOLT-4, in the assay on TK-10, with SK-MEL-2 and with Hs-578T was > 100 µM (inactive) in each case. Besides, the GI50 was above 100 µM in the assay with HCT-15 and > 100 µM (inactive) in the assay on CAKI-1.
With `Cc1c(C#N)c2nnn(-c3cccc(Cl)c3)c(=O)n2c1-c1ccccc1`, the GI50 is 2.25 µM (inactive) in the assay with NCI-H226; 2.99 µM (inactive) in the assay on 786-0; 6.81 µM (inactive) with SF-268; 3.46 µM (inactive) in the assay on DU-145; 5.31 µM (inactive) with OVCAR-8; 0.875 µM (active) with PC-3. Moreover, the GI50 was 0.566 µM (active) in the assay on MDA-MB-435; 1.65 µM (inactive) in the assay on OVCAR-3; 1.59 µM (inactive) in the assay with SF-539; 9.48 µM (inactive) with Malme-3M; 1.93 µM (inactive) with NCI-H522; 3.48 µM (inactive) in the assay with HCC 2998. For the same compound, the GI50 is 2.36 µM (inactive) in the assay with A498; 0.541 µM (active) in the assay with K562; 9.91 µM (inactive) in the assay on TK-10; 1.27 µM (inactive) in the assay on SK-MEL-2; 6.64 µM (inactive) in the assay on Hs-578T; 3.83 µM in the assay on HCT-15. For the same compound, the GI50 in the assay on CAKI-1 is 6.62 µM (inactive).
For `C=CC[C@@]1(C)CCCCCCCCC[C@@](C)(CC=C)C1=O`, the GI50 was 23.8 µM (inactive) with NCI-H226; 31.3 µM (inactive) in the assay on 786-0; 36.4 µM (inactive) in the assay on SF-268; 50.2 µM (inactive) in the assay with DU-145; 21.5 µM (inactive) in the assay with OVCAR-8; 37.1 µM (inactive) with PC-3. The GI50 in the assay with MDA-MB-435 is 46.9 µM (inactive); in the assay on OVCAR-3, 19 µM (inactive); with SF-539, 41.1 µM (inactive); in the assay on Malme-3M, 25.7 µM (inactive); with NCI-H522 it was 35.2 µM (inactive); with HCC 2998, 17.4 µM (inactive). In addition, the GI50 in the assay with A498 was 17.1 µM (inactive); with K562 it was 28.7 µM (inactive); with MOLT-4, 20.4 µM (inactive); in the assay on TK-10 it was 99.1 µM (inactive); in the assay on SK-MEL-2 it was 17.8 µM (inactive); in the assay on Hs-578T, 18.9 µM (inactive). For the same compound, the results for the GI50 with HCT-15 and in the assay with CAKI-1 were 29.4 µM and 35.4 µM (inactive), respectively.
For `CCCCCC/C=C\CCCCCCCCCC1=C(CN2CCN(C)CC2)C(=O)C=C(OC)C1=O`, the GI50 in the assay on NCI-H226 was 14.2 µM (inactive); in the assay on 786-0, 1.67 µM (inactive); in the assay with SF-268, 5.61 µM (inactive); in the assay on DU-145 it was 13.4 µM (inactive); in the assay with OVCAR-8, 4.53 µM (inactive); with PC-3, 2.37 µM (inactive). Besides, the GI50 was 8.65 µM (inactive) in the assay on MDA-MB-435; 6.76 µM (inactive) with OVCAR-3; 15.4 µM (inactive) in the assay on SF-539; 2.79 µM (inactive) in the assay with Malme-3M; 1.55 µM (inactive) in the assay on NCI-H522; 7.6 µM (inactive) with HCC 2998. Besides, the GI50 in the assay with A498 was 17.5 µM (inactive); with K562 it was 2.24 µM (inactive); with MOLT-4, 0.353 µM (active); in the assay with TK-10 it was 2.92 µM (inactive); with Hs-578T, 6.03 µM (inactive); in the assay on HCT-15, 2.47 µM. Further, the GI50 in the assay with CAKI-1 was 2.73 µM (inactive).
Regarding `OCCSCc1cc2c(O)c(c1)Cc1cc(CSCCO)cc(c1O)Cc1cc(CSCCO)cc(c1O)Cc1cc(CSCCO)cc(c1O)C2`, the GI50 was 10.4 µM (inactive) in the assay with NCI-H226; 3.29 µM (inactive) in the assay on 786-0; 2.88 µM (inactive) in the assay on SF-268; 4.91 µM (inactive) in the assay with DU-145; 5.09 µM (inactive) in the assay with OVCAR-8; 3.51 µM (inactive) in the assay on PC-3. Further, the GI50 was 2.83 µM (inactive) in the assay with MDA-MB-435; 1.73 µM (inactive) in the assay with OVCAR-3; 4.02 µM (inactive) with SF-539; 2.04 µM (inactive) in the assay with Malme-3M; 2.18 µM (inactive) with NCI-H522; 9.38 µM (inactive) with HCC 2998. Also, the GI50 in the assay on A498 is 6.15 µM (inactive); in the assay on K562 it was 7.28 µM (inactive); in the assay on MOLT-4 it was 3.35 µM (inactive); in the assay on TK-10, 4.8 µM (inactive); in the assay with SK-MEL-2, 2.32 µM (inactive); with Hs-578T, 8.43 µM (inactive). Besides, the GI50 in the assay with HCT-15 was 8.81 µM; in the assay on CAKI-1 it was 3.1 µM (inactive).
Turning to `N#Cc1c(-c2ccccc2)[nH]c2ccccc2c1=O`, the GI50 in the assay with NCI-H226 was 41.6 µM (inactive); in the assay on 786-0, > 100 µM (inactive); in the assay on SF-268, 35 µM (inactive); in the assay with DU-145, > 100 µM (inactive); in the assay on OVCAR-8, 97.9 µM (inactive); in the assay with PC-3, > 100 µM (inactive). For the same compound, the GI50 in the assay on MDA-MB-435 was 17.4 µM (inactive); in the assay with OVCAR-3 it was 83.6 µM (inactive); in the assay with SF-539, > 100 µM (inactive); in the assay on Malme-3M, 41.3 µM (inactive); in the assay with HCC 2998, > 10 µM (inactive); in the assay on A498, > 100 µM (inactive). For the same compound, the GI50 in the assay with K562 is 59.4 µM (inactive); with MOLT-4, > 100 µM (inactive); with TK-10 it was 32.8 µM (inactive); in the assay on SK-MEL-2, 39.6 µM (inactive); with Hs-578T, 19.2 µM (inactive); in the assay with HCT-15, 62.8 µM. The GI50 in the assay with CAKI-1 was > 100 µM (inactive).
